# Columns and labels:
# [1] = system: grammnegative Stäbchenbakterien; test: in vitro antibacterial activity against gram-negative rod bacteria; assay type: cell-based; conditions: at the lowest tested concentration (0,01 mg/ml)
# Description: (§1) Diese neuen Verbindungen zeichnen sich durch ihre wertvollen pharmakologischen Eigenschaften aus: so besitzen sie gemäss den Resultaten in vitro antibiotische, insbesondere antibakterielle Eigenschaften, wie z.B. einerseits gegen grammpositive und grammnegative Kokken, wie Staphylococcus aureus, Streptococcus pyogenes, Streptococcus pneumoniae, Neisseria meningitis, Neisseria gonorhoae (im getesteten Konzentrationsbereich 0,01 bis 8 mcg/ml), andererseits gegen grammnegative Stäbchenbakterien, wie Enterobacteriaceae, Pseudomonas aeruginosa, Haemophilus influenzae (im getesteten Konzentrationsbereich von 0,01 bis […]).
# [2] = system: grammpositive und grammnegative Kokken; test: in vitro antibacterial activity against cocci; assay type: cell-based; conditions: at the lowest tested concentration (0,01 mcg/ml)
# Description: as §1
molecule,measurement,setting,value
COC1=C2NC(=O)C(C)=CC=CC(C)C(O)C(C)C(O)C(C)C(OC(C)=O)C(C)C(OC)C=COC3(C)Oc4c(C)c(O)c(c(c4C3=O)C1=O)C2=O (stereo not shown) [3-Methoxyrifamycin-S],Hemmwirkung,[1],deutliche Hemmwirkung
same,Hemmwirkung,[2],deutliche Hemmwirkung
3-Benzoyloxyrifamycin-S [3-Benzoylrifamycin-S],Hemmwirkung,[1],deutliche Hemmwirkung
same,Hemmwirkung,[2],deutliche Hemmwirkung
3-(2-Methoxyäthoxy)-rifamycin-S [3-(2-Methoxyäthyl)-rifamycin-S],Hemmwirkung,[1],deutliche Hemmwirkung
same,Hemmwirkung,[2],deutliche Hemmwirkung
COC1C=COC2(C)Oc3c(C)c(O)c4c(c3C2=O)C(=O)C(OC(C)=O)=C(NC(=O)C(C)=CC=CC(C)C(O)C(C)C(O)C(C)C(OC(C)=O)C1C)C4=O (stereo not shown) [3-Acetoxyrifamycin-S],Hemmwirkung,[1],deutliche Hemmwirkung
same,Hemmwirkung,[2],deutliche Hemmwirkung
COC1C=COC2(C)Oc3c(C)c(O)c4c(c3C2=O)C(=O)C(Oc2ccccc2)=C(NC(=O)C(C)=CC=CC(C)C(O)C(C)C(O)C(C)C(OC(C)=O)C1C)C4=O (stereo not shown) [3-Phenoxyrifamycin-S],Hemmwirkung,[1],deutliche Hemmwirkung
same,Hemmwirkung,[2],deutliche Hemmwirkung
